Patent US9200046B2, “Reporter system for high throughput screening of compounds and uses thereof” (priority 2011, dated 2015)
Counter-ions that a name gives are not always drawn. Like-named read-outs stand apart in the source and are kept apart here.

Target: Nrf2-Keap1 complex (Homo sapiens, UniProt Q14145)
Assay: cell-based
Format: cell-based
Details: for activation at 16 µM / activation at 32 µM: 3 h; for activation at 16 µM: read-out: Activation 100 nL; for activation at 32 µM: read-out: Activation 200 nL
[1] = Table 2, 100 nL compound, screen run at 16 and 32 μM, 3 hr
[2] = Table 2, 200 nL compound, screen run at 16 and 32 μM, 3 hr
[3] = Table 1A, 100 nL compound, screen run at 16 and 32 μM, 3 hr
[4] = Table 1A, 200 nL compound, screen run at 16 and 32 μM, 3 hr

Nrf2-Keap1 complex, sequence (Q14145 whole entry, one chain of several): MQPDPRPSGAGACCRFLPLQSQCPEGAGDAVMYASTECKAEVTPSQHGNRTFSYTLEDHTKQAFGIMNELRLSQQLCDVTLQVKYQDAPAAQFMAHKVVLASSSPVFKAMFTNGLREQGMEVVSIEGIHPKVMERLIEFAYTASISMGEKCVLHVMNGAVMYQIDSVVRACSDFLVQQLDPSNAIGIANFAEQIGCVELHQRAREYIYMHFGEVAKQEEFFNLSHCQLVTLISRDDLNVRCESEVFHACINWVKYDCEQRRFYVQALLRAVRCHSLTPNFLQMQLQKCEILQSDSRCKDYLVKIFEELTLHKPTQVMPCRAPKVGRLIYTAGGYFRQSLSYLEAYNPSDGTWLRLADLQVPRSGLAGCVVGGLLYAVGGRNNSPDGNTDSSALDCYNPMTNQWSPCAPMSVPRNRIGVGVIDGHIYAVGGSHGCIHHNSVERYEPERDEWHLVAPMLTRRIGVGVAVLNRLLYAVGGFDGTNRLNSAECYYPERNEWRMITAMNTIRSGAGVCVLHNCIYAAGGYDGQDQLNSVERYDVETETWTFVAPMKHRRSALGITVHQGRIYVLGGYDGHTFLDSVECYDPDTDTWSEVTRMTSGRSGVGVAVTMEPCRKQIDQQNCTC

Molecule | Activation 100 nL [%] | Activation 200 nL [%] | 100 nL (luminescence) [1] | 200 nL (luminescence) [2] | activation at 16 µM [%] | activation at 32 µM [%] | 100 nL (luminescence) [3] | 200 nL (luminescence) [4] | 100 nL (luminescence) | 200 nL (luminescence)
CC(=O)O[C@H]1CC[C@]2(C)C(C[C@@H](OC(C)=O)[C@]3(C)C4=CC(=O)O[C@H](c5ccoc5)[C@@]4(C)CCC23)C1(C)C (stereo partly drawn) [3-DEOXO-3beta-ACETOXYDEOXYDIHYDROGEDUNIN] | 59 | 61 | 1256 | 1252 | – | – | – | – | – | –
CCOc1ccc(C(=O)c2ccc(OC)c(O)c2O)cc1 [2,3-DIHYDROXY-4-METHOXY-4′-ETHOXYBENZOPHENONE] | – | – | 2142 | 1324 | 117 | 65 | – | – | – | –
CC(=O)Oc1cc(-c2coc3cc(OC(C)=O)c(OC(C)=O)c(OC(C)=O)c3c2=O)cc(OC(C)=O)c1OC(C)=O [IRIGINOLHEXAACEATATE] | – | – | 1350 | 1208 | 65 | 58 | – | – | – | –
COc1ccc2cc1Oc1ccc(cc1)C[C@H]1c3c(cc4c(c3Oc3cc5c(cc3OC)CCN(C)[C@@H]5C2)OCO4)CCN1C [CEPHARANTHINE, reference compound] | – | – | – | – | 98 | 9 | 2348 | 584 | – | –
COc1ccc2c(c1)OC/C(=C\c1ccc(OC)c(O)c1)C2=O [SAPPANONEADIMETHYLETHER] | – | – | 6124 | 2008 | 377 | 110 | – | – | – | –
O=C1C(O)=C(O)C(=O)C(O)=C1O [TETROQUINONE] | – | – | 908 | 720 | 26 | 27 | – | – | – | –
NCCCCNCCCN [SPERMIDINETRIHYDROCHLORIDE] | – | – | 1000 | 860 | 72 | 22 | – | – | – | –
CC1(C)C=CC(=O)[C@@]2(C)C1CC(=O)[C@]1(C)C2CC[C@@]2(C)[C@H](c3ccoc3)OC(=O)C3OC321 (stereo partly shown) [DEACETOXY-7-OXISOGEDUNIN] | 170 | 178 | 2960 | 3040 | – | – | – | – | – | –
CC1=C2C(=CO[C@H](C)[C@H]2C)C(O)=C(C(=O)O)C1=O [CITRININ] | – | – | – | – | 219 | 217 | – | – | – | –
Oc1ccc2c(c1)OCC1c3cc4c(cc3OC21)OCO4 (stereo not shown) [MAACKIAIN] | – | – | – | – | 74 | 95 | 1492 | 1772 | – | –
AMSACRINEHYDROCHLORIDE [reference compound] | 345 | 40 | – | – | – | – | – | – | 3384 | 1264
C[C@@H]1C[C@H]2[C@@H]3CCC4=CC(=O)C=C[C@]4(C)[C@@]3(Cl)[C@@H](O)C[C@]2(C)[C@@]1(OC(=O)c1ccco1)C(=O)CCl [MOMETASONEFUROATE, reference compound] | – | – | 1508 | 2936 | 56 | 140 | – | – | – | –
CC(=O)C(=Cc1ccccc1)CC(=O)O | 78 | 43 | 1048 | 1348 | – | – | – | – | – | –
C=C(NC(=O)C(=C)NC(=O)c1csc(C2=N[C@@H]3c4csc(n4)[C@H]4NC(=O)c5csc(n5)[C@H]([C@](C)(O)[C@@H](C)O)NC(=O)[C@H]5CSC(=N5)/C(=C/C)NC(=O)[C@H]([C@@H](C)O)NC(=O)c5csc(n5)[C@]3(CC2)NC(=O)[C@H](C)NC(=O)C(=C)NC(=O)[C@H](C)NC(=O)[C@H]([C@@H](C)CC)N[C@@H]2C=Cc3c([C@H](C)O)cc(nc3[C@H]2O)C(=O)O[C@@H]4C)n1)C(N)=O [THIOSTREPTON, reference compound] | – | – | – | – | 58 | 50 | 876 | 1504 | – | –
CC(C)CCCC1(C)C=Cc2c(O)c3c(c(CCC(C)C)c2O1)OC12C(CC4CC1C(C)(C)OC2(CCC(C)C(=O)O)C4O)C3=O (stereo not shown) [DECAHYDROGAMBOGICACID] | – | – | 1184 | 936 | 54 | 40 | – | – | – | –
